Measurements as given in US20180169135A1, “METHOD FOR PREVENTING TRANSPLANT FAILURE IN A HOST” (Universiteit Maastricht, priority 2015, published 2018).

Molecular target: Histon H3 (Homo sapiens, UniProt P68431)

heparin [UFH]
neutralization of the cytotoxic activity of Histon H3: neutralize the cytotoxic activity of Histon H3
